Assays:
Type in all cases: cell-based
[1] = test system: HIV-1 RT mutant K103N/P225H; assay: single round infection assay, K103N/P225H; conditions: for IC50: Human immunodeficiency virus 1; for fold-change of IC50 of the mutant relative to WT: K103N/P225H vs WT
Experimental: (§1) The human osteosarcoma cell line, HOS, was obtained from Dr. Richard Schwartz (Michigan State University, East Lansing, MI) and grown in Dulbecco’s modified Eagle’s medium (Invitrogen, Carlsbad, CA) supplemented with 5 % (v/v) fetal bovine serum, 5 % newborn calf serum, and penicillin (50 units/ml) plus streptomycin (50 µg/ml; Quality Biological, Gaithersburg, MD). Virion production and single-round infectivity assays were used to determine antiviral activity (IC50 values) of the compounds as previously described.
(§2) pNLNgoMIVR-ΔEnv.LUC has been described previously. The RT open reading frame was removed from pNLNgoMIVR-ΔEnv.LUC (digestion with SpeI and SalI) and inserted between the SpeI and SalI sites of pBluescript II KS+. Using that construct as the wild-type template, we prepared the following HIV-1 RT mutants using the QuikChange II XL (Stratagene, La Jolla, CA) site-directed mutagenesis protocol kit: L100I, K103N, Y181C, Y188L, H221Y, K103N/Y181C, G190A, G190S, M230L, P236L, L100I/K103N, K103N/P225H, V106A/G190A/F227L, V106A, L234I, V106A/F227L, V106A/L234I, V106A/F227L/L234I, E40K, D67E, K101E, V111A, E138K, M184I, M184V, K101E/M184I, K101E/M184V, E138K/M184I, E138K/M184V, K101P, Y181I, and K101P/V179I. The following sense oligonucleotides were used with matching cognate antisense oligonucleotides (not shown) (Integrated DNA Technologies, Coralville, IA) in the mutagenesis: L100I, 5′-[…]-3′; L100I 2-103, 5′-[…]-3′; K103N, 5′-[…]-3′; Y181C, 5′-[…]-3′; Y188L, 5′-[…]-3′; H221Y, 5′-[…]-3′; G190A, 5′-[…]-3′; G190S, 5′-[…]-3′; P225H, 5′-[…]-3′; F227, 5′-[…]-3′; M230L, 5′-[…]-3′; P236L, 5′-[…]-3′; V106A, 5′-[…]-3′; L234I, 5′-[…]-3′; E40K, 5′-[…]-3′; D67E, 5′-[…]-3′; K101E, 5′-[…]-3′; V111A, 5′-[…]-3′; E138K, 5′-[…]-3′; M184I, 5′-[…]-3′; M184V, 5′-[…]-3′; K101P, 5′-[…]-3′; Y181I, 5′-[…]-3′; K101P/V179I, 5′-[…]-3′. The double mutants K103N/Y181C, K103N/P225H, and L100I/K103N were made using the previously generated K103N mutant and the appropriate oligonucleotides to add the second mutation, Y181C, P225, and L100I respectively. The double mutants V106A/F227L and V106A/L234I were prepared using the previously generated V106A mutant and the appropriate oligonucleotides to add the second mutation, F227L and L234I, respectively. The double mutants K101E/M184I and K101E/M184V were constructed using the previously generated K101E mutant and the appropriate oligonucleotides to add the second mutation, M184I and M184V, respectively. The double mutants E138K/M184I and E138K/M184V were constructed using the previously generated E138K mutant and the appropriate oligonucleotides for the second mutation, M184I and M184V, respectively. The triple mutant V106A/F227L/L234I was made using the previously generated V106A/F227L double mutant and the appropriate oligonucleotides for the third mutation, L234I. The triple mutant V106A/G190A/F227L was constructed in a series of steps using the previously generated V106A mutant and the appropriate oligonucleotides for the second mutation, G190A, to generate the double mutant V106A/G190A, and then the triple mutant was made using double mutant V106A/G190A and oligonucleotides for the third mutation, F227L. The DNA sequence of each construct was verified by DNA sequence determination. The sequences encoding the mutant RTs were then subcloned into pNLNgoMIVR-ΔEnv.LUC (between the KpnI and SalI sites) to produce the mutant HIV-1 constructs. These DNA sequences were also checked independently by DNA sequence determination.
(§3) 10.1186/s12977-016-0244-2 The IC50 values (nM) of RPV and the RPV analogs were determined against the NNRTI resistant mutants were measured by using a single round infection assay, n = 4. The concentrations (nM) are measured by reductions in luciferase reporter activity followed by the standard deviations. […]

HIV-1 RT mutant E138K = assay: single round infection assay, E138K; conditions: for fold-change of IC50 of the mutant relative to WT: E138K vs WT; for IC50: ± SD, n=4
Experimental: as §1, §2, §3

HIV-1 RT mutant G190A = assay: single round infection assay, G190A; conditions: Human immunodeficiency virus 1
Experimental: as §1, §2, §3

[2] = test system: HIV-1 RT mutant V106A/G190A/F227L; assay: single round infection assay, V106A/G190A/F227L; conditions: for IC50: Human immunodeficiency virus 1; for fold-change of IC50 of the mutant relative to WT: V106A/G190A/F227L vs WT
Experimental: as §1, §2, §3

[3] = test system: HIV-1 RT mutant K101E/M184V; assay: single round infection assay, K101E/M184V; conditions: for IC50: ± SD, n=4; for fold-change of IC50 of the mutant relative to WT: K101E/M184V vs WT
Experimental: as §1, §2, §3

HIV-1 RT mutant K101E = assay: single round infection assay, K101E; conditions: for IC50: Human immunodeficiency virus 1, K101E, ± SD, n=4; for fold-change of IC50 of the mutant relative to WT: K101E vs WT
Experimental: as §1, §2, §3

[4] = test system: HIV-1 RT mutant K101P/V179I; assay: single round infection assay, K101P/V179I; conditions: Human immunodeficiency virus 1
Experimental: as §1, §2, §3

[5] = test system: HIV-1 RT mutant V106A/F227L/L234I; assay: single round infection assay, V106A/F227L/L234I; conditions: for fold-change of IC50 of the mutant relative to WT: V106A/F227L/L234I vs WT; for IC50: ± SD, n=4
Experimental: as §1, §2, §3

HIV-1 RT mutant E40K = assay: single round infection assay, E40K; conditions: for IC50: Human immunodeficiency virus 1, E40K, ± SD, n=4; for fold-change of IC50 of the mutant relative to WT: E40K vs WT
Experimental: as §1, §2, §3

HIV-1 RT mutant M230L = assay: single round infection assay, M230L; conditions: for IC50: ± SD, n=4, limit of detection 100 nM; for fold-change of IC50 of the mutant relative to WT: M230L vs WT
Experimental: as §1, §2, §3

HIV-1 RT mutant V106A = assay: single round infection assay, V106A; conditions: for IC50: ± SD, n=4; for fold-change of IC50 of the mutant relative to WT: V106A vs WT
Experimental: as §1, §2, §3

HIV-1 RT mutant K101P = assay: single round infection assay, K101P; conditions: Human immunodeficiency virus 1
Experimental: as §1, §2, §3

HIV-1 RT mutant P236L = assay: single round infection assay, P236L; conditions: Human immunodeficiency virus 1
Experimental: as §1, §2, §3

[6] = Human immunodeficiency virus 1, E138K
[7] = Human immunodeficiency virus 1, K101E/M184V
[8] = Human immunodeficiency virus 1, M230L
[9] = Human immunodeficiency virus 1, V106A (selected by DOR)

| Structure (SMILES) | IC50 [1] | fold-change of IC50 of the mutant relative to WT [1] | fold-change of IC50 of the mutant relative to WT (HIV-1 RT mutant E138K) | IC50 (HIV-1 RT mutant E138K; [6]) | IC50 (HIV-1 RT mutant G190A) | IC50 [2] | fold-change of IC50 of the mutant relative to WT [2] | IC50 [3, 7] | fold-change of IC50 of the mutant relative to WT [3] | IC50 (HIV-1 RT mutant K101E) | fold-change of IC50 of the mutant relative to WT (HIV-1 RT mutant K101E) | IC50 [4] | fold-change of IC50 of the mutant relative to WT [5] | IC50 (HIV-1 RT mutant E40K) | IC50 (HIV-1 RT mutant M230L; [8]) | IC50 (HIV-1 RT mutant V106A; [9]) | IC50 (HIV-1 RT mutant K101P) | IC50 (HIV-1 RT mutant P236L) | fold-change of IC50 of the mutant relative to WT (HIV-1 RT mutant E40K) | fold-change of IC50 of the mutant relative to WT (HIV-1 RT mutant M230L) | further results |
| --- | --- | --- | --- | --- | --- | --- | --- | --- | --- | --- | --- | --- | --- | --- | --- | --- | --- | --- | --- | --- | --- |
| Cc1cc(/C=C/C#N)cc(C)c1Nc1ncc2ncn(-c3ccc(C#N)cc3)c2n1 [compound 26] | 12.9 nM | < 2 | 4 | 28.8 ± 1.1 nM | 2.2 nM | 46.2 ± 11.1 nM | 6 | 9.1 ± 0.1 nM | < 2 | 56.1 ± 4.1 nM | 7 | > 100 nM | 5 | 4.2 ± 0.8 nM | > 100 nM | 4.9 ± 1.3 nM | > 100 nM | 2.91 nM | – | – | – |
| Cc1cc(/C=C/C#N)cc(C)c1Nc1nc(Nc2ccc3scnc3c2)c2nc[nH]c2n1 [compound 21] | 1.4 ± 0.07 nM | 3 | 6 | < 2.5 nM | 0.3 ± 0.12 nM | 3.8 ± 1.6 nM | 9 | < 2.5 nM | 6 | 3.9 ± 0.14 nM | 10 | > 100 nM | 10 | – | < 6.1 nM | – | > 100 nM | 0.32 ± 0.09 nM | 2 | 15 | IC50 (HIV-1 RT mutant E138K; E138K): 2.4 ± 0.4 nM; IC50 ([3]; K101E/M184V): 2.4 ± 0.2 nM; IC50 ([5]; Human immunodeficiency virus 1, V106A/F227L/L234I (selected by DOR)): < 5 nM; IC50 ([5]; V106A/F227L/L234I (selected by DOR)): 4.3 ± 0.8 nM; IC50 (HIV-1 RT mutant M230L; M230L): 6.1 ± 0.14 nM; fold-change of IC50 of the mutant relative to WT (HIV-1 RT mutant V106A): 3 |
| Cc1cc(/C=C/C#N)cc(C)c1Nc1nc(Nc2ccc(F)cc2)c2nc[nH]c2n1 [compound 17] | 3.4 ± 0.2 nM | < 2 | 6 | 13.5 nM | 1.6 ± 0.3 nM | 10.8 ± 2.5 nM | 5 | 8.1 nM | 4 | 8.9 nM | 4 | > 100 nM | 6 | 6.4 nM | 21.1 nM | < 5 nM | 100 nM | 1.2 nM | 3 | 10 | IC50 (HIV-1 RT mutant V106A; V106A (selected by DOR)): 2.7 ± 0.64 nM; fold-change of IC50 of the mutant relative to WT (HIV-1 RT mutant V106A): 2 |

From PMC4754833, “Rilpivirine analogs potently inhibit drug-resistant HIV-1 mutants” (Retrovirology, 2016)
